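Interpolation was linear, between the two tested concentrations surrounding the appropriate level; five concentrations were tested over 48 hours in 96-well plates. GI50 = concentration required for 50% inhibition of growth. TGI is the concentration that stops growth completely.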
Key:
Experiment in all cases: growth of human tumour cells (NCI), 48 h
[1] = system: HOP-92 NSCLC
[2] = system: MOLT-4 leukemia
[3] = system: NCI-H460 lung
[4] = system: NCI-H522 lung
[5] = system: SF-268 CNS
[6] = system: SK-MEL-5 melanoma
[7] = system: SN12C renal
[8] = system: UACC-62 melanoma
[9] = system: SNB-75 CNS
[10] = system: A498 renal

Compound | GI50 [1] [µM] | TGI [1] [µM] | GI50 [2] [µM] | TGI [2] [µM] | GI50 [3] [µM] | TGI [3] [µM] | GI50 [4] [µM] | TGI [4] [µM] | GI50 [5] [µM] | TGI [5] [µM] | GI50 [6] [µM] | TGI [6] [µM] | GI50 [7] [µM] | TGI [7] [µM] | GI50 [8] [µM] | TGI [8] [µM] | TGI [9] [µM] | TGI [10] [µM] | GI50 [10] [µM] | GI50 [9] [µM]
O=C(O)c1ccccc1NCn1nc(-c2ccccc2O)oc1=S | 30.4 | 94.6 | 9.98 | 30 | 39.5 | > 100 | > 100 | > 100 | 80.9 | > 100 | 73.4 | > 100 | 56.5 | > 100 | 33.7 | 92.3 | – | – | – | –
N#Cc1c(-c2ccccc2)c(-c2ccccc2)cc2c(=O)c3ccc(Cl)cc3[nH]c12 | – | > 100 | – | > 100 | – | > 100 | – | – | – | > 100 | – | – | – | > 100 | – | > 100 | > 100 | – | – | –
CCOC(=O)C1=C(C)N(NC(N)=O)C2(N)N(NC(N)=O)C(C)=C(C(=O)OCC)C12C#N (stereo not drawn) | – | – | – | > 100 | – | > 100 | – | > 100 | – | > 100 | – | > 100 | – | > 100 | – | > 100 | > 100 | > 100 | – | –
Cc1ccccc1Nc1cc(O)c2c(=O)cc(-c3ccccc3)oc2c1 | 3.51 | > 100 | 2.66 | > 100 | 2.89 | > 100 | 1.79 | > 100 | 4.49 | > 100 | – | – | 4.05 | > 100 | 2.89 | > 100 | – | – | – | –
CCN1C(=O)N(CC)C2C1NC(=S)N2/N=C/C=C/c1ccccc1 (stereo not drawn) | – | – | 0.277 | > 100 | 0.176 | > 100 | 0.0486 | 4.45 | 0.32 | > 100 | 0.145 | 11.3 | 0.385 | > 100 | 0.0439 | > 100 | – | 0.146 | 0.0249 | –
COc1ccc(/C=C/C(=O)c2c(-c3ccccc3)nn(C)c(=O)c2N2CCCCC2)cc1 | – | 16.8 | – | 23.1 | – | 49.4 | – | 27.3 | – | 66.1 | – | 29.1 | – | 64.2 | – | 44.8 | – | – | – | –
Cc1ccc(S(=O)(=O)Nc2ccccc2C(C)(C)C)cc1 | – | – | – | 62.8 | – | 42.2 | – | – | – | – | – | 29.8 | – | – | – | 44.4 | > 100 | 59.7 | – | –
COc1ccc(-c2cnc(-c3ccncc3-c3cccc(OC)c3)o2)cc1 | 0.403 | 20.2 | 0.0617 | 17.2 | 0.0365 | 4.03 | 0.019 | 0.0615 | 0.0783 | 16.9 | 0.0379 | 0.226 | 0.0798 | 16 | 0.0508 | 15.5 | 23.2 | – | – | 0.0329
Cc1ccc(-n2c3nc(=O)n(C)c(=O)c-3nc3ccccc32)c(C)c1 | – | – | – | 36.2 | – | 15.3 | – | 29 | – | 34.8 | – | 18.5 | – | 22.8 | – | 5.49 | 26.7 | – | – | –
CC(C)(C)C1=NO[C@H]2[C@@H](NC(=O)c3ccccc3)CC[C@@H]12 | – | > 100 | – | > 100 | – | > 100 | – | > 100 | – | > 100 | – | > 100 | – | > 100 | – | > 100 | > 100 | – | – | –
Cc1ccc(-n2nc(C(OC3OC(CO)C(O)C(O)C3O)C(O)CO)c3nc4cc(C)c(C)cc4nc32)cc1 (stereo not drawn) | – | – | – | > 100 | – | > 100 | – | > 100 | – | > 100 | – | – | – | > 100 | – | > 100 | > 100 | > 100 | – | –
COc1cc([C@@H]2c3cc4c(cc3[C@H](SC(=N)N)[C@H]3COC(=O)[C@H]23)OCO4)cc(OC)c1OC | 37.1 | > 100 | 0.382 | > 100 | 0.294 | 56.1 | 0.125 | – | 0.421 | > 100 | 0.201 | 0.649 | 0.621 | > 100 | 1.64 | > 100 | > 100 | – | – | 0.477
Cc1nc2ccncc2[nH]1 | – | – | – | > 100 | – | > 100 | – | – | – | > 100 | – | > 100 | – | > 100 | – | > 100 | > 100 | > 100 | – | –
O=C1C=CC2(CCC23C=CC(=O)O3)O1 (stereo not drawn) | – | – | – | > 100 | – | > 100 | – | > 100 | – | > 100 | – | – | – | > 100 | – | > 100 | > 100 | > 100 | – | –
C=C1C(=O)O[C@@H]2C[C@@]3(C)[C@H](O)CCC(=C)[C@@H]3C[C@H]12 | – | 18.2 | – | – | – | 19.7 | – | 17.6 | – | 34.9 | – | 16.8 | – | 23.2 | – | 19 | 15.2 | – | – | –
OCC1OC(OC2(CO)OC(CO)C(O)C2O)C(O)C(O)C1O (stereo not drawn) | > 100 | > 100 | > 100 | > 100 | > 100 | > 100 | > 100 | > 100 | > 100 | > 100 | > 100 | > 100 | > 100 | > 100 | > 100 | > 100 | > 100 | – | – | > 100

— PubChem BioAssay (NCI)
